Data reported in patent US12649751B2 (Arcus Biosciences, Inc., priority 2022, dated 2026).
Like-named read-outs stand apart in the source and are kept apart here.

Tests used:
[1] = test system: p-SLP-76 (Ser376) in Jurkat cells; assay: pSLP76 Cellular Assay (AlphaLISA SureFire Ultra p-SLP-76 (Ser376), anti-CD3 activated Jurkat cells); format: cell-based; conditions: Homo sapiens, read-out: Cellular Potency
Method: pSLP76 cellular assay was performed using Jurkat cells and the AlphaLISA SureFire Ultra p-SLP-76 (Ser376) Assay Kit (PerkinElmer). Dose-response assays were performed in Greiner® Low Volume 384-well assay plates containing 200 nL of 22 serial 2-fold compound dilutions using Bravo and Echo. Jurkat cells were grown in RPMI-1640 supplemented with 10% FBS and PSG. The day prior to the assay, the cells were collected, and serum starved overnight in Opti-MEM. The day of the assay, the cells were collected and resuspended in HBSS. 100,000 cells/well were added to the compound plates and after a short spin, the plates were incubated at 37° C. for 1 h. The cells were activated by adding 10 μL of 0.025 mg/ml anti-CD3. Plates were then incubated at 37° C. for 45 min. Stimulation was terminated by adding […], followed by a brief centrifugation and 60 min of shaking at 300 rpm. Cell lysates (10 μL) were transferred to 384-well White Opti-plates and the samples were processed according to the manufacturer's directions. The fluorescence signal from pSLP76 was measured at 570 nm using Envision plate reader. IC50 values were determined by fitting the data to a standard 4-parameter logistic equation. The results are summarized in the Cellular Potency columns in Tables 4 and 5 below (Cellular Potency).

[2] = biological target: HPK1 (Homo sapiens, UniProt Q92918); assay: HPK1 Biochemical Assay (ADP-Glo luminescence; low ATP 10 μM or high ATP 200 μM)
[3] = pSLP76 (Ser376) AlphaLISA, anti-CD3 activated Jurkat cells
[4] = HPK1 ADP-Glo assay, high ATP (200 μM ATP, 5 nM HPK1), read-out: Biochemical Potency (high ATP)
[5] = HPK1 ADP-Glo assay, low ATP (10 μM ATP, 2 nM HPK1), read-out: Biochemical Potency (low ATP)
[6] = Jurkat cells, anti-CD3 stimulation, pSLP76
[7] = 2 nM HPK1, 10 μM ATP, read-out: Biochemical Potency (low ATP)

HPK1, sequence (Q92918 whole entry, species assumed): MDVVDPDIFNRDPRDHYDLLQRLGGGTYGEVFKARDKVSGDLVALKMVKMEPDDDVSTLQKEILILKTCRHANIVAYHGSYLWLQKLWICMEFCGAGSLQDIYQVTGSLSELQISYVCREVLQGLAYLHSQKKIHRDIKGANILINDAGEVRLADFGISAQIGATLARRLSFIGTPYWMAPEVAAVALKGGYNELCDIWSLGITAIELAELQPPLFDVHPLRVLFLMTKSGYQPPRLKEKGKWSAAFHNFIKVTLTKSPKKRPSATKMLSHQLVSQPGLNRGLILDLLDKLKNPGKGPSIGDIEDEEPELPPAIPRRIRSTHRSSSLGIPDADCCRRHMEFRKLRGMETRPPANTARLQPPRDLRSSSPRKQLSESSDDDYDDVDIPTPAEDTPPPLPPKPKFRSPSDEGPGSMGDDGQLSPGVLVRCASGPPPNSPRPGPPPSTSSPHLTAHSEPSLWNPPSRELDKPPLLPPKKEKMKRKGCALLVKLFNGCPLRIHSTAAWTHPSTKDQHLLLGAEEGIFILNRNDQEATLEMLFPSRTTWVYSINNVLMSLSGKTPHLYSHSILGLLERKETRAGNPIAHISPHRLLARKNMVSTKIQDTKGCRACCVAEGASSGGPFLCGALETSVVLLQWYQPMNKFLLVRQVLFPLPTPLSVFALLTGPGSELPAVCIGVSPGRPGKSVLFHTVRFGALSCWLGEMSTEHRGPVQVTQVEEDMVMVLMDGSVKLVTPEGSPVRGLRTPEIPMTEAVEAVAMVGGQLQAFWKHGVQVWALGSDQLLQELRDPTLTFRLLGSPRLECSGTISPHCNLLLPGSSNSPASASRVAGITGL

IC50 [1, 3] [nM] | IC50 [2, 4] [nM] | IC50 [2, 5] [nM] | IC50 [1, 6] [nM] | IC50 [2, 7] [nM] | SMILES
100 to 1000 | < 100 | < 100 |  |  | c1cc(Nc2cc3nc(-c4ncco4)sc3cn2)nc(N2C[C@@H]3C[C@H]2CN3)n1 [Example 409]
< 100 | < 100 |  |  |  | CCc1cc(C(=O)N(C)C)cc(-c2nc3cc(Nc4cc(C)nc(N5C[C@@H]6C[C@H]5CN6CC)n4)ncc3s2)c1 [Example 518]
< 100 | < 100 |  |  |  | CCN1C[C@@H]2C[C@H]1CN2c1nc(C)cc(Nc2cc3nc(-c4cccc(C(=O)N5C[C@@H]6OCCO[C@@H]6C5)c4)sc3cn2)n1 [Example 529]
< 100 | < 100 |  |  |  | Cc1cc(Nc2cc3nc(-c4cnn(C)c4C(C)(C)O)sc3cn2)nc(N2C[C@@H]3C[C@H]2CN3C)n1 [Example 309, 2-{4-[6-(2-{(1S,4S)-5-methyl-2,5-diazabicyclo[2.2.1]hept-2-yl}-6-methyl-4-pyrimidinylamino)-3-thia-1,5-diaza-2-indenyl]-1-methyl-5-pyrazolyl}-2-propanol]
 |  |  | > 5000 | > 5000 | CN(C)Cc1ccc(N2CCOCC2)c(Nc2cc3nc(-c4c(F)cccc4F)sc3cn2)n1 [Example 276, N-[2-(2,6-Difluorophenyl)-[1,3]thiazolo[5,4-c]pyridin-6-yl]-6-[(dimethylamino)methyl]-3-(morpholin-4-yl)pyridin-2-amine]
100 to 1000 | < 100 |  |  |  | Cc1cc(Nc2cc3nc(-c4ccnc(N5CCO[C@H](C)C5)c4)sc3cn2)nc(N2C[C@@H]3C[C@H]2CN3CCO)n1 [Example 451]
< 100 | < 100 |  |  |  | Cc1cc(Nc2cc3nc(-c4cccc5c4C(C)(C)C(=O)N5)sc3cn2)nc(N2C[C@@H]3C[C@H]2CN3CCO)n1 [Example 350]
100 to 1000 | < 100 |  |  |  | CCN1C[C@@H]2C[C@H]1CN2c1nc(C)cc(Nc2cc3nc(-c4cncc(OCC5CC5)c4)sc3cn2)n1 [Example 422]
1000 to 5000 | 100 to 1000 |  |  |  | Cc1cc(Nc2cc3nc(-c4ccc(=O)n(C)c4)sc3cn2)nc(N2C[C@@H]3C[C@H]2CN3C)n1 [Example 391]
 |  |  | 100 to 1000 | < 100 | COc1cccc(F)c1-c1nc2cc(Nc3cccc(N4C[C@@H]5C[C@H]4CN5C)n3)ncc2s1 [Example 80, N-[2-(2-Fluoro-6-methoxyphenyl)-[1,3]thiazolo[5,4-c]pyridin-6-yl]-6-[(1S,4S)-5-methyl-2,5-diazabicyclo[2.2.1]heptan-2-yl]pyridin-2-amine]
< 100 | < 100 |  |  |  | c1cnn(-c2nc3cc(Nc4cnc(C5CCOCC5)c(N5C[C@@H]6C[C@H]5CN6)n4)ncc3s2)c1 [Example 508]
100 to 1000 | < 100 |  |  |  | Cc1cc(Nc2cc3nc(-c4cccc(C(=O)N(C)[C@@H](C)CO)c4)sc3cn2)nc(N2C[C@@H]3C[C@H]2CN3C)n1 [Example 561]
5000 to 25000 | 100 to 1000 |  |  |  | Cc1cc(Nc2cc3nc(-c4ccc5c(c4)S(=O)(=O)N(C)C5)sc3cn2)nc(N2C[C@@H]3C[C@H]2CN3C)n1 [Example 374]
100 to 1000 | < 100 |  |  |  | CCN1C[C@@H]2C[C@H]1CN2c1nc(C)cc(Nc2cc3nc(-c4cccc(C(=O)NC5CCOCC5)c4)sc3cn2)n1 [Example 532]
100 to 1000 | < 100 |  |  |  | Cc1cc(Nc2cc3nc(-c4cnn(CCO)c4)sc3cn2)nc(N2C[C@@H]3C[C@H]2CN3C)n1 [Example 381]
100 to 1000 | < 100 |  |  |  | CO[C@H]1CCN(c2cc(-c3nc4cc(Nc5cc(C)nc(N6C[C@@H]7C[C@H]6CN7CCO)n5)ncc4s3)ccn2)C1 [Example 454]
< 100 | < 100 |  |  |  | Cc1cc(Nc2cc3nc(-c4cccc(C(=O)N5CCC[C@@H]5C)c4)sc3cn2)nc(N2C[C@@H]3C[C@H]2CN3CCO)n1 [Example 548]
100 to 1000 | < 100 |  |  |  | CCN1C[C@@H]2C[C@H]1CN2c1nc(C)cc(Nc2cc3nc(-c4cccc(C(=O)N5CCCOCC5)c4)sc3cn2)n1 [Example 531]

IC50 [1, 3] [nM] | IC50 [2, 4] [nM] | IC50 [2, 5] [nM] | IC50 [1, 6] [nM] | IC50 [2, 7] [nM] | SMILES
1000 to 5000 | 100 to 1000 |  |  |  | CCN1C[C@@H]2C[C@H]1CN2c1nc(C)cc(Nc2cc3nc(-c4cccc(C(=O)N(C)C5CCN(C(C)=O)CC5)c4)sc3cn2)n1 [Example 568]
5000 to 25000 |  | 100 to 1000 |  |  | Fc1cccc(F)c1-c1nc2cc(Nc3cc4c(cn3)CCNC4)ncc2s1 [Example 486]
100 to 1000 | < 100 |  |  |  | Cc1cc(Nc2cc3nc(-c4cccc(C(=O)N(C)C)c4)sc3cn2)nc(N2C[C@@H]3C[C@H]2CN3Cc2cccnc2)n1 [Example 497]
100 to 1000 | < 100 |  |  |  | Cc1cc(Nc2cc3nc(-c4ncccc4OC(F)F)sc3cn2)nc(N2C[C@@H]3C[C@H]2CN3C)n1 [Example 468]
100 to 1000 | < 100 |  |  |  | OCCN1C[C@@H]2C[C@H]1CN2c1nccc(Nc2cc3nc(-c4cnn(CC5CC5)c4)sc3cn2)n1 [Example 357]
100 to 1000 | < 100 |  |  |  | Cc1cc(Nc2cc3nc(-c4cnn5c4CNCC5)sc3cn2)nc(N2C[C@@H]3C[C@H]2CN3C)n1 [Example 575]
100 to 1000 | < 100 |  |  |  | CN1C[C@@H]2C[C@H]1CN2c1cc(Cl)cc(Nc2cc3nc(-c4ccnc(C(C)(C)O)c4)sc3cn2)n1 [Example 333]
 |  |  | 1000 to 5000 | < 100 | CN1C[C@@H]2C[C@H]1CN2c1cccc(Nc2cc3nc(-c4cncc(S(C)(=O)=O)c4)sc3cn2)n1 [Example 131, N-[2-(5-Methanesulfonylpyridin-3-yl)-[1,3]thiazolo[5,4-c]pyridin-6-yl]-6-[(1S,4S)-5-methyl-2,5-diazabicyclo[2.2.1]heptan-2-yl]pyridin-2-amine]
 |  |  | 100 to 1000 | < 100 | Cc1cc(Nc2cc3nc(-c4c(F)cccc4F)sc3cn2)nc(O[C@H]2CCNC2)c1 [Example 175, N-[2-(2,6-Difluorophenyl)-[1,3]thiazolo[5,4-c]pyridin-6-yl]-4-methyl-6-[(3S)-pyrrolidin-3-yloxy]pyridin-2-amine]
 |  |  | 100 to 1000 | < 100 | CN1C[C@@H]2C[C@H]1CN2c1cccc(Nc2cc3nc(-n4cccn4)sc3cn2)n1 [Example 206, 6-[(1S,4S)-5-Methyl-2,5-diazabicyclo[2.2.1]heptan-2-yl]-N-[2-(1H-pyrazol-1-yl)-[1,3]thiazolo[5,4-c]pyridin-6-yl]pyridin-2-amine]
1000 to 5000 | 100 to 1000 |  |  |  | CC(=O)N1CCC(n2cc(-c3nc4cc(Nc5cc(C)nc(N6C[C@@H]7C[C@H]6CN7C)n5)ncc4s3)cn2)CC1 [Example 571]
 |  |  | > 5000 | > 5000 | CN(C)Cc1nc(Nc2cccc(F)c2-c2nc3cc(Cl)ncc3s2)ccc1N1CCOCC1 [Example 19, N-(2-{6-Chloro-[1,3]thiazolo[5,4-c]pyridin-2-yl}-3-fluorophenyl)-6-[(dimethylamino)methyl]-5-(morpholin-4-yl)pyridin-2-amine]
< 100 | < 100 | < 100 |  |  | Cc1cc(Nc2cc3nc(-c4ncccc4C)sc3cn2)nc(N2C[C@@H]3C[C@H]2CN3)n1 [Example 407]
100 to 1000 | < 100 |  |  |  | CN1C[C@@H]2C[C@H]1CN2c1nccc(Nc2cc3nc(-c4cccc(S(=O)(=O)C5CC5)c4)sc3cn2)n1 [Example 405]
 |  |  | 1000 to 5000 | < 100 | Cc1cccnc1-c1nc2cc(Nc3ccc(C4CC4)c(CN4CCCC4)n3)ncc2s1 [Example 262, 5-Cyclopropyl-N-[2-(3-methylpyridin-2-yl)-[1,3]thiazolo[5,4-c]pyridin-6-yl]-6-[(pyrrolidin-1-yl)methyl]pyridin-2-amine]
 |  |  | 100 to 1000 | < 100 | Cc1cccnc1-c1nc2cc(Nc3ccc(N4CCC(F)(F)C4)c(CN4CCCC4)n3)ncc2s1 [Example 9, 5-(3,3-Difluoropyrrolidin-1-yl)-N-[2-(3-methylpyridin-2-yl)-[1,3]thiazolo[5,4-c]pyridin-6-yl]-6-[(pyrrolidin-1-yl)methyl]pyridin-2-amine]
1000 to 5000 |  | < 100 |  |  | Cc1cccnc1-c1nc2cc(Nc3ccc4c(n3)[C@@](C)(N)CC4)ncc2s1 [Example 576]

SMILES | IC50 [1, 3] [nM] | IC50 [2, 4] [nM] | IC50 [2, 5] [nM] | IC50 [1, 6] [nM] | IC50 [2, 7] [nM]
Cc1cccnc1-c1nc2cc(Nc3ccc4c(n3)[C@](C)(N)CCC4)ncc2s1 [Example 316, (8R)-8-methyl-N2-[2-(3-methylpyridin-2-yl)-[1,3]thiazolo[5,4-c]pyridin-6-yl]-5,6,7,8-tetrahydroquinoline-2,8-diamine] | 1000 to 5000 |  | 1000 to 5000 |  | 
Cc1cccnc1-c1nc2cc(Nc3ccc4c(n3)[C@H](N)CCC4)ncc2s1 [Example 317, (8R)-N2-[2-(3-methylpyridin-2-yl)-[1,3]thiazolo[5,4-c]pyridin-6-yl]-5,6,7,8-tetrahydroquinoline-2,8-diamine] | 1000 to 5000 |  | < 100 |  | 
